In series [1] the test system is MCF-7 breast adenocarcinoma cells. Nature of the series: Caspase-3/7 apoptosis assay, drug sensitive cells. As to conditions: MCF-7, 24 hrs. It counts as cell-based, human. The protocol: (§1) Human MCF-7 breast adenocarcinoma cells and the adriamycin resistant MCF-7-ADR(NCl-AdrR) were grown at 37° C. in RPMI 1640 medium supplemented with 10% fetal bovine serum (FBS). MCF-7 and MCF-7-ADR cells were seeded to a density of 6×10^3 cells/well and grown for 48 hrs in culture medium containing 10% FBS. Cells were then treated with Cer10-CPNP or control CPNP for 24 hrs in media containing 1% fetal bovine serum. Caspase-3/7 enzymatic activity levels were then measured using the Apo-ONE Homogenous Caspase-3/7 Assay (Promega) and performed following the instructions of the manufacturer. The kit provides a caspase-3/7 substrate and Rhodamine 110, which is cleaved by enzymatically active caspase-3/7 resulting in a fluorogenic cleavage product.

Series [2] concerns MCF-7/ADR (adriamycin resistant) breast adenocarcinoma cells. Put plainly: Caspase-3/7 apoptosis assay, drug resistant cells. As to conditions: 24 hrs. Type of series: cell-based, human. The protocol:
as §1

Series [3] in a line: Fluorescence emission of ICG-CPNPs versus free ICG. The settings on record: aqueous solution, pH 7; data not shown. It counts as physicochemical. The text has this: The fluorescence spectrum of the dye-doped CPNPs was compared to that of the corresponding free ICG dye under identical optical conditions (785 nm excitation). […] These undesirable phenomena result in peak transformations or spectral shifts, respectively, which are not observed for the embedded ICG emission.
For all optical measurements, samples were placed in a low-volume fluorescence cuvette (9F-SOG-10-GL14-S; Starna Cells, Inc., Atascadero, Calif.), and held by a modified cuvette holder. Absorption spectra were recorded on a PerkinElmer Lambda 950 UV-Vis-NIR spectrophotometer (Perkin Elmer, Waltham, Mass.). The dye-doped particle absorption at 785 nm was compared to a standard curve of absorption vs. ICG concentration to identify the apparent encapsulate content, not accounting for any matrix effects. Next, the release of the encapsulated fluorophore was induced with the addition of a 10:1 volume ratio of a 10^−3 M solution of ethylenediaminetetraacetic acid (EDTA) to the particle suspension. EDTA is a chelating agent that sequesters the divalent Ca^2+ ion from the nanostructure, dissolving the calcium phosphate particles. […]
Fluorescence spectra were recorded using an in-house spectroscopy system in which emitted radiation was collected at 90 degrees with a 10× microscope objective (N.A. 0.3) coupled into a fiber optic cable leading to the spectrometer (Ocean Optics HR-2000-USB). […]

The nature of series [4]: Quantum efficiency of ICG. It counts as physicochemical. The settings on record: PBS pH 7.4, reference HITC.
Method: Each measurement was conducted in duplicate on two separate occasions using freshly prepared stock solutions and a new set of standard data.
Series [5] can be described thus: Solvent protection (emission spectra in four bio-relevant solvents). As to conditions: water, DMEM, ethylene glycol, DMSO. Type of series: physicochemical. The source says:
The chemical stability of the encapsulated fluorophore was experimentally verified by analyzing fluorescence spectra as a function of solvent environment. The effect of four bio-relevant solvents (water, Dulbecco's modified Eagle's medium (DMEM), ethylene glycol, and dimethylsulfoxide (DMSO)) on the free ICG dye is shown in FIG. 17A, with shifts in the normalized emission spectra dependent on the solvent environment. The maximum emission wavelengths have a standard deviation of 7.8 nm over an 18 nm spread. These peak values shift toward longer wavelengths due to a combination of general solvent influences and specific solvent effects, such as molecule-molecule interactions and hydrogen bonding. (Lakowicz, J. R., Principles of Fluorescence Spectroscopy. 3rd ed.; Springer: Baltimore, Md., 2006).
Fluorescence spectra were recorded using an in-house spectroscopy system in which emitted radiation was collected at 90 degrees with a 10× microscope objective (N.A. 0.3) coupled into a fiber optic cable leading to the spectrometer (Ocean Optics HR-2000-USB). A high power 785 nm diode laser (450 mW/cm^2) was used as the excitation source (RL785; Renishaw plc, Gloucestershire, UK). […] Aliquots of each were diluted 1:10 into the test solvent and kept in the dark. Measurements were conducted precisely 10 minutes after the sample introduction.

The test system of series [6] is nude mice implanted with subcutaneous human breast adenocarcinoma tumors. Nature of the series: In vivo NIR imaging: pharmacokinetic distribution and tumor localization. As to conditions: 24 hours post tail vein injection. The protocol: A NIR whole animal imaging approach was used to investigate the in vivo pharmacokinetic distribution of ICG-CPNPs in nude mice. […] Two different surface functionalities of CPNPs were evaluated, as-synthesized carboxylate surface termination (not shown) and particles surface functionalized with polyethylene glycol (PEG) (series iii). The in vivo behavior of the ICG-CPNP samples were compared to two controls: a sample of carboxylated ghost CPNPs without a fluorescent encapsulate (series i) and free ICG of equivalent absorption (series ii). […] The relatively short in vivo fluorescence of the free dye is attributed to fluorescence quenching of free ICG in physiological environments (Landsman, M. L. J.; Kwant, G.; Mook, G. A.; Zijlstra, W. G. Journal of Applied Physiology 1976, 40, (4), 575-583; Desmettre, T.; Devoisselle, J. M.; Mordon, S. Survey of Opthalmology 2000, 45, (1), 15-27; Simmons, R.; Shephard, R. J. Journal of Applied Physiology 1971, 30, (4), 502-507; Gathje, J.; Steuer, R. R.; Nicholes, K. R. K. Journal of Applied Physiology 1970, 29, (2), 181-185; Mordon, S.; Devoisselle, J. M.; Soulie-Begu, S.; Desmettre, T. Microvascular Research 1998, 55, (2), 146-152; Maarek, J. M. I.; Holschneider, D. P.; Harimoto, J. Journal of Photochemistry and Photobiology B-Biology 2001, 65, (2-3), 157-164) with rapid aggregation and clearance from the body. […]

Another series deals with animal subjects. The settings on record: cited from earlier work.
Another series can be described thus: Solubility in water. It counts as physicochemical.
A short description of series [7]: Fluorescence correlation spectroscopy in DPBS (pH dependent dissolution). Type of series: physicochemical. As to conditions: for Diffusion coefficient, average / RH (hydrodynamic radius), average: DPBS pH 4, free dye, average of ten measurements. The source says:
Fluorescence correlation spectroscopy was used to determine the solution phase behavior of the particles in order to better understand the particulate behavior in biologically-relevant solutions and to monitor only the fluorescing species. To this end we examined the free dye and the particles in DPBS (Dulbecco's phosphate buffered saline), at pH 7 and at pH 4. Low pH conditions mimicked the acidic environment of an endo-lysosome in which a particle would be enveloped during endocytosis.
FCS measurements were collected for free Cy3 dye at pH 4, Cy3-doped nanoparticles at pH 4 and pH 7 in DPBS. Sample autocorrelation curves are shown in FIG. 9, where a shift of the curve to the right (greater characteristic diffusion time) signifies a lower diffusion coefficient and a larger hydrodynamic radius. In this case, the diffusion time of free Cy3 dye molecules is 127 μs and that of the nanoparticles at pH 7 is 1311 μs. […] The corresponding hydrodynamic radii are RH=9.40±3.83 nm for the nanoparticles at pH 7, RH=0.76±0.09 nm for the nanoparticles at pH 4 and RH=0.75±0.06 nm for the free dye at pH 4. Similar results were obtained for the nanoparticles in DI water at pH 7 and pH 4 (data not shown). In addition to the diffusion data, the particle number concentration can be determined based on the number of particles that diffuse through the observation volume. The CPNP suspension has a particle number concentration of ˜6×10^14 particles/mL, based on these determinations.
The diffusion coefficients and their associated hydrodynamic radii for the ten measurements collected for each sample type (the nanoparticle samples at pH 7 and pH 4, and the Cy3 free dye at pH 4) are listed in Table S1.

Series [8] in a line: Relative fluorescence quantum efficiency of Cy3. It counts as physicochemical. The settings on record: PBS, excitation 532 nm, reference Rhodamine 6G. The protocol: As a comparison of the free dye to the encapsulated dye, the relative fluorescence quantum efficiency (QE) was determined according to techniques in the literature. (Williams, A. T. R.; Winfield, S. A.; Miller, J. N. The Analyst 1983, 108, 1067-1071; Kubin, R. F.; Fletcher, A. N. Journal of Luminescence 1982, 27, 455-462). In brief, the integrated fluorescence signals of the free Cy3 and the Cy3-doped CPNPs in PBS were compared to a known reference standard with an excitation wavelength of 532 nm and the QE was calculated using a modified relationship from Lakowicz (Lakowicz, J. R., Principles of Fluorescence Spectroscopy. Third ed.; Springer Science and Business Media: New York, 2006; p 54),
[formula] where Φ, and ΦR are the QE for the sample and the reference respectively, M and Mr are the slopes of the integrated intensity versus absorption plots (FIG. 12A) and n is the refractive index of each solvent. Rhodamine 6G in ethanol was used as a reference with a quantum efficiency of 0.95. (Kubin, R. F.; Fletcher, A. N. Journal of Luminescence 1982, 27, 455-462). […] FIG. 12B exemplifies this enhancement in QE by comparing the fluorescence signal of the Cy3-doped CPNPs to a solution of Cy3 free dye with the same absorption at 532 nm. […]

The conditions of series [9]: in methanol; cited from earlier work.

Entries after “also recorded” stand apart in the source; their conditions may differ. Structures can show the parent of a compound that is named as a salt.

Consider five molecules from patent US8771741B2, “In vivo photodynamic therapy of cancer via a near infrared agent encapsulated in calcium phosphate nanoparticles” (The Penn State Research Foundation, priority 2009, dated 2014).

On to `CCCCCCCCCCCCC/C=C/[C@@H](O)[C@H](CO)NC(=O)CCCCCCCCC` [Cer10 in DMSO, Decanoyl-ceramide], for which the “caspase 3/7 activity (apoptosis)” value in [1] and in series [2] was “not” each time.
What is called LD50 is the dose expected to kill half of the subjects tested. With `CC1(C)C(/C=C/C=C/C=C/C=C2\N(CCCCS(=O)(=O)O)c3ccc4ccccc4c3C2(C)C)=[N+](CCCCS(=O)(=O)[O-])c2ccc3ccccc3c21` [free ICG, indocyanine green], the “concentration at which self-aggregation and loss of emission intensity occur” value in series [3] is 7 µM. In addition, the “quantum efficiency (per molecule)” value in series [4] is recorded as 0.028±0.001. Moreover, the “spread of maximum emission wavelengths over four solvents” value in [5] was determined as 18 nm. Besides, the “in vivo fluorescence signal” value in series [6] is on record as “no detectable signal; also recorded: No fluorescence signal is detected”. Also, the median lethal dose (LD50) in the series on animal subjects is 50 to 80 mg/kg.
Broadly, the solubility is the concentration that dissolves in the medium under given conditions. Consider `O=C1OC2(c3ccc(O)cc3Oc3cc(O)ccc32)c2ccccc21` [fluorescein sodium salt], for which, in the series “Solubility in water” (water), the solubility was above 40 mg/mL.
On to Cy3 amidite [Cy3 Dye], for which the “Diffusion coefficient, average” value in series [7] is 2.90 × 10^−6 cm^2/s; in series [7] (listed as free Cy3 dye), 29.0±0.18×10^−7 cm^2/s. Also, the “RH (hydrodynamic radius), average” value in [7] stood at 0.751 nm; in [7] (listed as free Cy3 dye), 0.75±0.06 nm. In addition, the diffusion time in [7] (sample autocorrelation curve, free dye pH 4) is on record as 127 μs. The quantum efficiency is listed as 0.045 in [8] (listed as Cy3 in free solution) and 0.045±0.002 in [8] (listed as free Cy3 dye). The same molecule registered a solubility in water in the series “Solubility in water” below 0.05 mg/mL.
Regarding `CN1C(=CC=CC=CC=CC2=[N+](C)c3ccccc3C2(C)C)C(C)(C)c2ccccc21.[I-]` [hexamethylindotricarbocyanine (HITC), 1,1′,3,3,3′,3′-hexamethylindotricarbocyanine iodide], the “quantum yield of reference dye” value in series [9] was 0.28.
